Test results from patent EP0726261A1, “Herbidical 1,2,4 thiadiazoles” (American Cyanamid Company, priority 1995, dated 1996).

Legend:
Assay type in all cases: in vivo
[1] = system: Triticum aestivum; assay: Preemergence herbicidal activity (Example 67); design: herbicide rating, TRZAW: scale not given here; conditions: pre, 800 g/ha
Outline: (§1)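 Test compound was dissolved in acetone containing 0.5% alkylphenol/ethylene oxide condensate, diluted with water and sprayed onto the soil surface of cups at 800g/ha in 400 L/ha (3 bar nozzle). Cups were kept under standard greenhouse conditions and rated about 1-3 weeks after treatment.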

[2] = system: Helianthus annuus; assay: Postemergence herbicidal activity (Example 67); conditions: pos, 800 g/ha
Outline: (§2)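 Seedlings 3-6 weeks old, grown in peat/volcanic clay/bark/polyamide substrate mixed 1:3 with loamy sand, were sprayed postemergence at 800g/ha in 400 L/ha. Compound dissolved in acetone with 0.5% TRITON X-155, diluted in water. Plants kept in greenhouse and rated visually after 10-21 days.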

[3] = system: Amaranthus retroflexus; assay: Postemergence herbicidal activity (Example 67); conditions: pos, 800 g/ha
Outline: as §2

[4] = system: Veronica persica; assay: Postemergence herbicidal activity (Example 67); conditions: pos, 800 g/ha
Outline: as §2

[5] = system: Galium aparine; assay: Postemergence herbicidal activity (Example 67); conditions: pos, 800 g/ha
Outline: as §2

[6] = system: Abutilon theophrasti; assay: Postemergence herbicidal activity (Example 67); conditions: pos, 800 g/ha
Outline: as §2

[7] = system: Hordeum vulgare; assay: Postemergence herbicidal activity (Example 67); conditions: pos, 800 g/ha
Outline: as §2

[8] = system: Alopecurus myosuroides; assay: Postemergence herbicidal activity (Example 67); conditions: pos, 800 g/ha
Outline: as §2

[9] = system: Chenopodium album; assay: Postemergence herbicidal activity (Example 67); conditions: pos, 800 g/ha
Outline: as §2

[10] = system: Zea mays; assay: Postemergence herbicidal activity (Example 67); conditions: pos, 800 g/ha
Outline: as §2

[11] = system: Setaria viridis; assay: Postemergence herbicidal activity (Example 67); conditions: pos, 800 g/ha
Outline: as §2

[12] = system: Ipomoea hederacea; assay: Postemergence herbicidal activity (Example 67); conditions: pos, 800 g/ha
Outline: as §2

[13] = system: Triticum aestivum; assay: Postemergence herbicidal activity (Example 67); conditions: pos, 800 g/ha
Outline: as §2

[14] = system: Helianthus annuus; assay: Preemergence herbicidal activity (Example 67); conditions: pre, 800 g/ha
Outline: as §1

[15] = system: Amaranthus retroflexus; assay: Preemergence herbicidal activity (Example 67); conditions: pre, 800 g/ha
Outline: as §1

[16] = system: Veronica persica; assay: Preemergence herbicidal activity (Example 67); conditions: pre, 800 g/ha
Outline: as §1

[17] = system: Galium aparine; assay: Preemergence herbicidal activity (Example 67); conditions: pre, 800 g/ha
Outline: as §1

[18] = system: Abutilon theophrasti; assay: Preemergence herbicidal activity (Example 67); conditions: pre, 800 g/ha
Outline: as §1

[19] = system: Chenopodium album; assay: Preemergence herbicidal activity (Example 67); conditions: pre, 800 g/ha
Outline: as §1

[20] = system: Zea mays; assay: Preemergence herbicidal activity (Example 67); conditions: pre, 800 g/ha
Outline: as §1

[21] = system: Ipomoea hederacea; assay: Preemergence herbicidal activity (Example 67); conditions: pre, 800 g/ha
Outline: as §1

[22] = system: Hordeum vulgare; assay: Preemergence herbicidal activity (Example 67); design: herbicide rating, HORVW: scale not given here; conditions: pre, 800 g/ha
Outline: as §1

[23] = system: Setaria viridis; assay: Preemergence herbicidal activity (Example 67); design: herbicide rating, SETVI: scale not given here; conditions: pre, 800 g/ha
Outline: as §1

[24] = system: Alopecurus myosuroides; assay: Preemergence herbicidal activity (Example 67); design: herbicide rating, ALOMY: scale not given here; conditions: pre, 800 g/ha
Outline: as §1

[25] = rated about 1-3 weeks after treatment

## COc1ccc(-c2nsc(C(=O)NC(C)c3cccs3)n2)cc1 (racemic) [Example 35]
[1]; [25]
  herbicide rating, TRZAW: 0
[2]; rated after 10-21 days
  herbicide rating, HELAN: 5 (45-64%)
[3]; rated after 10-21 days
  herbicide rating, AMARE: 3 (16-29%)
[4]; rated after 10-21 days
  herbicide rating, VERPE: 2 (6-15%)
[5]; rated after 10-21 days
  herbicide rating, GALAP: 4 (30-44%)
[6]; rated after 10-21 days
  herbicide rating, ABUTH: 4 (30-44%)
[7]; rated after 10-21 days
  herbicide rating, HORVW: 3 (16-29%)
[8]; rated after 10-21 days
  herbicide rating, ALOMY: 3 (16-29%)
[9]; rated after 10-21 days
  herbicide rating, CHEAL: 5 (45-64%)
[10]; rated after 10-21 days
  herbicide rating, ZEAMX: 3 (16-29%)
[11]; rated after 10-21 days
  herbicide rating, SETVI: 8 (91-99%)
[12]; rated after 10-21 days
  herbicide rating, IPOHE: 4 (30-44%)
[13]; rated after 10-21 days
  herbicide rating, TRZAW: 3 (16-29%)
[14]; [25]
  herbicide rating, HELAN: 3 (16-29%)
[15]; [25]
  herbicide rating, AMARE: 0
[16]; [25]
  herbicide rating, VERPE: 4 (30-44%)
[17]; [25]
  herbicide rating, GALAP: 4 (30-44%)
[18]; [25]
  herbicide rating, ABUTH: 0
[19]; [25]
  herbicide rating, CHEAL: 5 (45-64%)
[20]; [25]
  herbicide rating, ZEAMX: 0
[21]; [25]
  herbicide rating, IPOHE: 0
[22]; [25]
  herbicide rating, HORVW: 0
[23]; [25]
  herbicide rating, SETVI: 0
[24]; [25]
  herbicide rating, ALOMY: 0

## CC(NC(=O)c1nsc(-c2ccccc2F)n1)c1cccs1 (racemic) [Example 57, (R/S)-5-(2-Fluorophenyl)-[1,2,4]thiadiazole-3-carboxylic acid, [1-(2-thienyl)ethyl]amide]
[1]
  TRZ AW rating: 2 (6-15%)
[2]
  HEL AN rating: 8 (91-99%)
[3]
  AMA RE rating: 7 (80-90%)
[4]
  VER PE rating: 6 (65-79%)
[5]
  GAL AP rating: 7 (80-90%)
[6]
  ABU TH rating: 9 (100% effect)
[7]
  HOR VW rating: 4 (30-44%)
[8]
  ALO MY rating: 4 (30-44%)
[9]
  CHE AL rating: 4 (30-44%)
[10]
  ZEA MX rating: 5 (45-64%)
[11]
  SET VI rating: 9 (100% effect)
[12]
  IPO HE rating: 7 (80-90%)
[13]
  TRZ AW rating: 3 (16-29%)
[14]
  HEL AN rating: 0
[15]
  AMA RE rating: 4 (30-44%)
[16]
  VER PE rating: 0
[17]
  GAL AP rating: 0
[18]
  ABU TH rating: 0
[19]
  CHE AL rating: 1 (1-5%)
[20]
  ZEA MX rating: 0
[21]
  IPO HE rating: 0
[22]
  HOR VW rating: 0
[23]
  SET VI rating: 2 (6-15%)
[24]
  ALO MY rating: 3 (16-29%)

## C[C@H](NC(=O)c1nsc(-c2ccccc2F)n1)c1ccccc1 [Example 56, (S)-5-(2-Fluorophenyl)-[1,2,4]thiadiazole-3-carboxylic acid, 1-(phenylethyl)amide]
[1]
  TRZ AW rating: 0
[2]
  HEL AN rating: 8 (91-99%)
[3]
  AMA RE rating: 7 (80-90%)
[4]
  VER PE rating: 7 (80-90%)
[5]
  GAL AP rating: 6 (65-79%)
[6]
  ABU TH rating: 9 (100% effect)
[7]
  HOR VW rating: 5 (45-64%)
[8]
  ALO MY rating: 5 (45-64%)
[9]
  CHE AL rating: 4 (30-44%)
[10]
  ZEA MX rating: 4 (30-44%)
[11]
  SET VI rating: 8 (91-99%)
[12]
  IPO HE rating: 8 (91-99%)
[13]
  TRZ AW rating: 5 (45-64%)
[14]
  HEL AN rating: 0
[15]
  AMA RE rating: 5 (45-64%)
[16]
  VER PE rating: 4 (30-44%)
[17]
  GAL AP rating: 0
[18]
  ABU TH rating: 2 (6-15%)
[19]
  CHE AL rating: 2 (6-15%)
[20]
  ZEA MX rating: 0
[21]
  IPO HE rating: 3 (16-29%)
[22]
  HOR VW rating: 0
[23]
  SET VI rating: 2 (6-15%)
[24]
  ALO MY rating: 0

## C[C@H](NC(=O)c1nsc(-c2cccc(C(F)(F)F)c2)n1)c1ccccc1 [Example 42]
[1]
  TRZ AW rating: 0
[2]
  HEL AN rating: 3 (16-29%)
[3]
  AMA RE rating: 0
[4]
  VER PE rating: 0
[5]
  GAL AP rating: 0
[6]
  ABU TH rating: 0
[7]
  HOR VW rating: 2 (6-15%)
[8]
  ALO MY rating: 1 (1-5%)
[9]
  CHE AL rating: 3 (16-29%)
[10]
  ZEA MX rating: 0
[11]
  SET VI rating: 5 (45-64%)
[12]
  IPO HE rating: 2 (6-15%)
[13]
  TRZ AW rating: 2 (6-15%)
[14]
  HEL AN rating: 0
[15]
  AMA RE rating: 0
[16]
  VER PE rating: 2 (6-15%)
[17]
  GAL AP rating: 2 (6-15%)
[18]
  ABU TH rating: 0
[19]
  CHE AL rating: 5 (45-64%)
[20]
  ZEA MX rating: 0
[21]
  IPO HE rating: 0
[22]
  HOR VW rating: 0
[23]
  SET VI rating: 0
[24]
  ALO MY rating: 0
